Tests used:
[1] = tested on: human gastric cancer SGC-7901 tumor transplanted in nude mice; test: Growth inhibition of human gastric cancer SGC-7901 tumor transplanted in nude mice; format: in vivo; conditions: SGC-7901 xenograft
Protocol: (§1) Method: 1. Establishing model of human gastric cancer SGC-7901 tumor transplanted in nude mice, and animal groups: SGC_7901 cell lines were cultured with medium RPMI1640 containing 10% fetal bovine serum. SGC-7901 cells at logarithmic growth phase were trypsinized into single cell suspension. Final concentration of the cell was adjusted with medium RPMI1640 into 5×10^7/mL. 0.2 mL of cell suspension was injected subcutaneously into right anterior axillary of each nude mouse. 14 days after inoculation, when the tumor size grew to about 130 to 180 mm^3, the nude mice were randomized into five groups according to tumor size and body weight of mice, with 8-12 mice in each group. 5 groups were: a blank control group (purified water containing 0.5% of hydroxypropyl methylcellulose and 0.1% Tween 80, administered through gavage, each at morning and evening, for 10 days), 12.5, 25 and 50 mg/kg of I-1 treatment group (administered through gavage, each at morning and evening, for 10 days), and 100 mg/kg cyclophosphamide (CYP) group (by intraperitoneal injection, once every 5 days, for 2 weeks), respectively.
(§2) 2. Growth situation of subcutaneous human gastric cancer tumor transplanted in nude mice and inhibitory effect was observed: from the dosing day, body weight of nude mouse as well as the maximum diameter (D) and minimum diameter (d) of tumor were observed every two days. The tumor size was calculated following the formula V=Dd^2/2, and the tumor growth curve was plotted. At the end of the experiment, the tumor was dissected in whole and picture was taken. Growth rate of nude mouse body weight before and after treatment=[(body weight after treatment−body weight before treatment)/body weight before treatment]*100%; tumor inhibition rate=[1−(tumor size after treatment in the experiment group−tumor size before treatment in the experiment group)/(tumor size after treatment in the control group−tumor size before treatment in the control group)]*100%

[2] = tested on: human gastric cancer MGC-803 tumor transplanted in nude mice; test: Growth inhibition of human gastric cancer MGC-803 tumor transplanted in nude mice; format: in vivo; conditions: MGC-803 xenograft
Protocol: (§3) Method: 1. Establishing model of human gastric cancer MGC-803 tumor transplanted in nude mice, and animal groups: MGC-803 cell lines were cultured with medium RPMI1640 containing 10% fetal bovine serum. MGC-803 cells at logarithmic growth phase were trypsinized into single cell suspension. Final concentration of the cell was adjusted with medium RPMI1640 into 5×10^7/mL. 0.2 mL of cell suspension was injected subcutaneously into right anterior axillary of each nude mouse. 8 days after inoculation, when the tumor size grew to about 110 mm^3, the mice were randomized into five groups according to tumor size and body weight of mice, with 10 mice in each group. 5 groups were: a blank control group (purified water containing 0.5% of hydroxypropyl methylcellulose and 0.1% Tween 80, administered through gavage, once per day, for […]), 4, 6 and 9 mg/kg of I-2 treatment group (administered through gavage, once per day, for 17 days), and 100 mg/kg cyclophosphamide group (by intraperitoneal injection, once every 7 days, for 3 weeks), respectively.
as §2, with “3-4” for “two”

[3] = tested on: human gastric cancer cell line SGC-7901; test: MTT growth inhibition assay, SGC-7901; format: cell-based; conditions: SGC-7901, MTT, 96 hours incubation
Protocol: (§4) Method: Cells in the logarithmic growth phase (human gastric cancer cell lines SGC-7901, MGC-803, human oral epidermoid carcinoma cell line KB, human non-small cell lung cancer cell line A549, human breast ductal cancer cell line BT-549, human prostate cancer cell line PC-3, human colon cancer cell line HT-29, human brain astrocytic glioblastoma cell line U-87MG and a human hepatoma cell line SMMC-7721) at a concentrations of 1.5×10^4 were inoculated in 96 well plates. The original medium was removed after cell culture for 24 hours until adherence. The tests included blank control group and drug treatment group. For the control group, the medium was replaced with 1640 medium containing 10% fetal bovine serum; for the drug treatment group, the medium was replaced with medium containing compounds I-1, I-2 and I-3 to be tested at concentrations of 100 μM, 50 μM, 10 μM, 1 μM, 0.1 μM, 0.01 μM, 0.001 μM, 0.0001 μM and 0.00001 μM. After incubation for 96 hours add MTT at a concentration of 5 mg/mL, and resume incubation in a CO2 incubator for 4 hours. And then along the upper part of the culture solution, remove 100 μL, of supernatant, add 100 μL of DMSO, allow to place at a dark for 10 minutes. With a microplate reader (a product from Sunrise company), absorbance was measured (at wavelength 570 nm), and cell survival situation is calculated based on the absorbance. Six duplicated wells were set for each treatment. Cell viability (%)=ΔODdrug treatment/ΔODblank control×100.

[4] = tested on: a variety of human tumor cell lines; test: Growth inhibition on various strains of human tumor cell with MTT assay (overall statements); format: cell-based; conditions: in words
Protocol: as §4, with “Six duplicated wells were set for each treatment. Cell viability (%)=ΔODdrug treatment/ΔODblank control×100.” left out

[5] = Body weight change / toxicity in SGC-7901 tumor-bearing nude mice
Protocol: as §1
(§5) 2. […] The tumor size was calculated following the formula V=Dd^2/2, and the tumor growth curve was plotted. […]

[6] = tested on: human brain astrocytic glioblastoma cell line U-87MG; test: MTT growth inhibition assay, U-87MG; format: cell-based; conditions: U-89MG [sic], 96 hours incubation
Protocol: as §4

[7] = tested on: human oral epidermoid carcinoma cell line KB; test: MTT growth inhibition assay, KB; format: cell-based; conditions: 96 hours incubation
Protocol: as §4

[8] = tested on: human prostate cancer cell line PC-3; test: MTT growth inhibition assay, PC-3; format: cell-based; conditions: PC-3, MTT, 96 hours incubation
Protocol: as §4

[9] = tested on: human hepatoma cell line SMMC-7721; test: MTT growth inhibition assay, SMMC-7721; format: cell-based; conditions: SMMC-7721, MTT, 96 hours incubation
Protocol: as §4

[10] = tested on: human gastric cancer cell line MGC-803; test: MTT growth inhibition assay, MGC-803; format: cell-based; conditions: MGC-803, MTT, 96 hours incubation
Protocol: as §4

[11] = tested on: human colon cancer cell line HT-29; test: MTT growth inhibition assay, HT-29; format: cell-based; conditions: HT-29, MTT, 96 hours incubation
Protocol: as §4

[12] = tested on: human breast ductal cancer cell line BT-549; test: MTT growth inhibition assay, BT-549; format: cell-based; conditions: BT-549, MTT, 96 hours incubation
Protocol: as §4

[13] = tested on: human non-small cell lung cancer cell line A549; test: MTT growth inhibition assay, A549; format: cell-based; conditions: 96 hours incubation
Protocol: as §4

[14] = Body weight change / toxicity in MGC-803 tumor-bearing nude mice
Protocol: as §3, §5

SMILES | IC50 [3] [nM] | Inhibitory effect on the growth of a variety of human tumor cell lines [4] | IC50 [6] [nM] | IC50 [7] [nM] | IC50 [8] [nM] | IC50 [9] [nM] | IC50 [10] [nM] | IC50 [11] [nM] | IC50 [12] [nM] | IC50 [13] [nM] | other results
O=P1(N(CCCl)CCCl)NCCCO1 (centres unmarked) [CYP, cyclophosphamide, reference compound] | – | – | – | – | – | – | – | – | – | – | Tumor inhibition rate ([1]; 100 mg/kg, intraperitoneal injection, once every 5 days, for 2 weeks): 39.5%; Tumor inhibition rate ([2]; 100 mg/kg, intraperitoneal injection, once every 7 days, for 3 weeks): 62.4%
Cc1cc2c(cn1)C(c1ccccc1Cl)=Nc1c(n[nH]c1C)N2 [Compound I-1] | 290 ± 130 | very significant inhibition | 400 ± 20 | 1350 ± 50 | 1900 ± 390 | 140 ± 30 | 980 ± 40 | 160 ± 40 | 390 ± 230 | 690 ± 240 | Tumor inhibition rate ([1]; 12.5 mg/kg, gavage, each at morning and evening, for 10 days): 67.5%; Tumor inhibition rate ([1]; 25 mg/kg, gavage, each at morning and evening, for 10 days): 83%; Tumor inhibition rate ([1]; 50 mg/kg, gavage, each at morning and evening, for 10 days): 88.6%; Toxic side effect ([5]; 12.5, 25 and 50 mg/kg, gavage, twice daily, 10 days): negligible toxic side effect; Effect on weight gain of nude mouse ([5]; only for the highest dose of 50 mg/kg, FIG. 3): mild effect on weight gain
CCc1cc2c(cn1)C(c1ccccc1Cl)=Nc1c(n[nH]c1C)N2 [Compound I-2, 9-(2-chlorophenyl)-6-ethyl-1-methyl-2,4-dihydrogen-2,3,4,7,10-pentaaza-benzo [f] azulene] | 90 ± 10 | very significant inhibition | 60 ± 40 | 620 ± 10 | 850 ± 100 | 40 ± 10 | 700 ± 20 | 80 ± 10 | 70 ± 30 | 250 ± 140 | Tumor inhibition rate ([2]; 4 mg/kg, gavage, once per day, for 17 days): 72.5%; Tumor inhibition rate ([2]; 6 mg/kg, gavage, once per day, for 17 days): 97.3%; Tumor inhibition rate ([2]; 9 mg/kg, gavage, once per day, for 17 days): 100%; Toxic side effect ([14]; 4, 6 and 9 mg/kg, gavage, once per day, 17 days): negligible toxic side effect; Effect on weight gain of nude mouse ([14]; only for the highest dose of 9 mg/kg on treatment day 3-6, FIG. 6): mild effect on weight gain
Cc1cc2c(cn1)C(c1ccccc1F)=Nc1c(n[nH]c1C)N2 [Compound I-3] | 1630 ± 130 | – | 1940 ± 240 | 7270 ± 590 | 11300 ± 1300 | 820 ± 190 | 4860 ± 390 | 740 ± 80 | 1950 ± 230 | 3250 ± 250 | –
